Source: patent publication US7501399B2, “Immunoeffector compounds” (Corixa Corporation, priority 2000, dated 2009)

Assays:
[1] = test system: HBsAg; test: Adjuvant activity towards HBsAg, IgG1 and IgG2a isotype titers by ELISA (Example 4); format: in vivo, BALB/c mice
Protocol: IgG1 and IgG2a isotype titers to HBsAg were determined by ELISA from pooled sera collected 21 days post secondary (Table 3). The nonimmune controls were not vaccinated. […] RC-553 stimulated titers equivalent to the positive controls, MPL® immunostimulant (Table 3).

[2] = test system: iNOS; test: iNOS induction in IFN-γ primed J774 murine macrophages, Greiss reagent nitrite release; format: cell-based; settings: J774 cells primed with IFN-γ
Protocol: This example illustrates the effects of various glycolipids on iNOS induction in J774 murine macrophages. The murine macrophage cell line J774 can be primed by IFN-γ in vitro and is very responsive to subsequent LPS stimulation of iNOS upregulation as measured by a standard Greiss reagent ELISA assay procedure. The assay utilizes J774 cells seeded at 1×10^6/mL with 30 mL/flask and with IFN-γ added at 100 units/mL for 16-24 hrs. Cells are then harvested and washed and resuspended at 2×10^5/well in a 96-well plate and allowed to adhere. Glycolipid compounds are serially diluted into the wells for a test group and the resulting cultures are incubated for another 36-40 hrs before culture supernatants are collected from Greiss reagent analysis of nitrite release (Green et al. (1982) Anal. Biochem. 126: 131-138). Nitrite content closely parallels iNOS function.
Potency was determined as the concentration (ng/mL) of glycolipid in culture capable of inducing one-half maximal induction of nitrite (ED50). The lower the ED50 number, the greater the potency for iNOS induction. The ED50 was cacluated according to methods set out in Johnson et al., (1999) J Med Chem. 42: 4640-4649.

[3] = test system: TNF-α; test: Ex vivo cytokine induction in human whole blood, TNF-α sandwich ELISA; format: cell-based; settings: 1, 5 and 10 μg/ml in the assay; 4 hr at 37° C.
Protocol: (§1) The effects of RC-553 on the elaboration of TNF-α and IL-1β was measured under ex vivo conditions on human peripheral blood mononuclear cells. MPL® immunostimulant and RC-553 were formulated in aqueous solutions of 0.2% TEoA/WFI.
(§2) Human whole blood was used to evaluate the ability of glycolipids (AGPs) to induce proinflammatory cytokines. Human whole blood is collected into heparinized tubes and 0.45 ml of whole blood is admixed with 0.05 ml phosphate buffered saline (PBS, pH 7.4) containing the glycolipid (i.e., the test compounds). The tubes are incubated for 4 hr at 37° C. on a shaker apparatus. The samples are then diluted with 1.5 ml sterile PBS and centrifuged. The supernatants are removed and analyzed for […] TNF-α and IL-1β by sandwich ELISA using R&D Systems' Quantikine immunoassay kits for human TNF-α and IL-1β.

[4] = test system: IL-1β; test: Ex vivo cytokine induction in human whole blood, IL-1β sandwich ELISA; format: cell-based
Protocol: as §1, §2

[5] = Rabbit pyrogen test; format: in vivo; settings: i.v. 10 μg/Kg dose
From the text: In an effort to obtain an immunostimulant that has low pyrogenicity, synthetic molecules have been prepared which share structural similarities with the MPL® immunostimulant (see U.S. patent application Ser. No. 09/810,915, Filed on Mar. 16, 2001, and the present invention). These novel molecules which are collectively called aminoalkyl glucosaminide phosphates (AGPs), consist of an acylated […] moiety linked to an acylated aminoalkyl group (Johnson et al. (1999) Bioorg. Med. Chem. Lett. 9: 2273-2278; PCT/WO98/50399 and references therein). […] The substitution of different chemical moieties within the aminoalkyl structures was designed into the AGPs in anticipation of optimizing stability and solubility properties. Thus the AGPs can be broadly separated into several families based on the structure of their aminoalkyl groups. […] Here we report on studies of the adjuvant properties of a class of AGPs which induce minimal activity in both the rabbit pyrogen test and the ex vivo cytokine assay.

[6] = test system: HBsAg (Hepatitis B Surface Antigen); test: Adjuvant activity towards HBsAg, serum titers by ELISA (Example 2); format: in vivo, BALB/c mice
Protocol: Vaccines were prepared by mixing the adjuvant-containing TEoA (triethanolamine) formulations with recombinant HBsAg. Titers to HBsAg were determined by ELISA from pooled sera (5 mice/group) collected 21 days post-secondary vaccination (Table 1). The nonimmune controls were not vaccinated.

[7] = anti-HBsAg, 2.0 μg HBsAg + 25 μg adjuvant s.c. day 0 and 21, pooled sera 21 days post secondary
[8] = anti-HBsAg, 2 μg HBsAg + 20 μg adjuvant s.c. day 0 and 21, pooled sera 21 days post-secondary

## N—[(R)-3-Tetradecanoyloxytetradecanoyl]-(S)-2-pyrrolidinomethyl 2-Deoxy-4-O-phosphono-2-[(R)-3-tetradecanoyloxytetradecanoylamino]-3-O—[(R)-3-tetradecanoyloxytetradecanoyl]-β-D-glucopyranoside Triethylammonium Salt [RC-553]
[1]; Example 4
  HBsAg titers versus control group which received antigen in PBS: increased titers compared to the control group
[1]; [7]
  Serum Titers IgG1: 32,000
  Serum Titers IgG2a: 2,048,000
[2]
  Maximal iNOS activity / iNOS induction: essentially inactive
[3]
  Levels of TNF-α produced: did not produce levels of TNF-α that could be detected
[4]; 1, 5, and 10 μg/ml, 4 hr at 37° C.
  Levels of IL-1β produced: did not produce detectable levels of IL-1β
[4]; relative to MPL® immunostimulant = 1
  Relative induction of cytokines (IL-1β), MPL® immunostimulant assigned a value of 1: ≤ 0.05
[5]; Table 2
  Pyrogenicity (total rise in ° C. of 3 rabbits): 0.3 °C
[5]; Table 3
  Pyrogenicity (total rise in ° C. of 3 rabbits): 0.3 °C
[5]; Table 4
  Pyrogenicity (total rise in ° C. of 3 rabbits): 0.3 °C
[5]; solubilized in 10% EtOH/WFI, diluted with 5% dextrose in water, Table 1
  Pyrogenicity (total rise in ° C. of 3 rabbits): 0.3 °C
[6]; Example 2
  anti-HBsAg responses (serum titers) versus antigen alone: significantly higher than control sera receiving antigen alone
[6]; [8]
  Serum Titers IgG: 409,600
  Serum Titers IgG1: 204,800
  Serum Titers IgG2a: 409,600
  Serum Titers IgG2b: 51,200
